Tests used:
L3.6pl cells = assay: Human orthotopic pancreatic cancer model, L3.6pl cells in nude mice, treatment from day 7; format: in vivo, mouse; conditions: nude mice
Outline: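 L3.6pl pancreatic carcinoma cells (passage 24-26) were injected orthotopically into the pancreas of male nude mice. From day 7, groups of 15 received i.p. human v6 peptide or rat control peptide (20 μg, 14mer or 5mer), three times weekly for 21 days. Animals were killed two days after the last dose; tumors were analyzed by P-Met, Met, CD31 and caspase immunostaining.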

CD44v6 [1] = assay: HGF-induced activation of Met and ERK in L3.6pl cells (Western blot); format: cell-based, human; conditions: peptide before induction with 10 ng/ml HGF
Outline: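 L3.6pl human pancreatic carcinoma cells serum-starved 24 h, pretreated 10 min at 37° C with CD44v6 or control peptide (100 ng/mL), then stimulated with HGF (10 ng/mL) 5 min. Phospho-Met and phospho-ERK detected by western blot with total Met/ERK reprobe; bands quantified densitometrically.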

CD44v6 [2] = assay: HGF-induced activation of Met and Erk in HT29 cells (Western blot); format: cell-based, human
Protocol: FIG. 28: A: Activation of Met and signal transduction induced by HGF depends on CD44v6 in L3.6pl cells. L3.6pl cells were treated with the human v6 peptide (human v6 14mer) or the rat v6 peptide as control prior to induction with 10 ng/ml HGF. Activation of Met and ERK was determined in western blot. The numbers refer to the fold induction. The experiment was repeated at least 5 times. B: Activation of c-Met and signal transduction induced by HGF depends on CD44v6 HeLa cells. Starved HeLa cells respectively HT29 cells were incubated with the v6 peptide (human v6 14mer) or a control peptide for 10 minutes at 37° C. and then induced with 25 ng/ml of HGF for the indicated time points. Cells were then either lysed and the lysates were subjected to Western Blot analysis for phospho-Met and Met. C: Activation of c-Met and signal transduction induced by HGF depends on CD44v6 in HT29 cells. HGF-induced c-Met and Erk phosphorylation in HT29 was determined as described above using phospho-specific antibodies. […]
The contribution of CD44v6 to Met signaling in the human epithelial pancreatic cancer cells L3.6pl (derived from Colo 357), the cervix carcinoma cells HeLa and the colon cancer cells HT29 were analysed using the CD44v6 peptide (v6 14mer; v6 5mer tested as well, data not shown).

[3] = orthotopic L3.6pl, 20 μg i.p. three times per week

Sequence: KEQWFGNRWHEGYR [SEQ ID NO: 6, human CD44v6 14mer peptide]
- Tumor angiogenesis (CD31 staining, vessel number and vessel size) (L3.6pl cells; orthotopic L3.6pl tumors): decreased angiogenesis as exemplified by a reduced vessel number and vessel size
- Metastasis formation (liver) (L3.6pl cells; [3]): completely inhibited metastasis formation within the liver
- Outgrowth of the primary tumor in the pancreas (L3.6pl cells; [3]): strongly repressed
- Met activation in the tumor (phospho-Met immunofluorescence) (L3.6pl cells; orthotopic L3.6pl, 20 μg i.p. three times per week for three weeks): completely repressed Met activation
- HGF-induced phosphorylation/activation of ERK (CD44v6 [1]): inhibited
- HGF-induced phosphorylation/activation of Met (CD44v6 [1]): inhibited
- HGF-induced phosphorylation/activation of ERK (CD44v6 [1]; listed as CD44v6 peptide): able to prevent activation
- HGF-induced phosphorylation/activation of Met (CD44v6 [1]; listed as CD44v6 peptide): able to prevent activation
- HGF-induced activation of Met (CD44v6 [2]; HT29, starved, peptide 10 min 37° C., HGF 25 ng/ml): able to prevent activation
- HGF-induced activation of downstream target Erk (CD44v6 [2]; HT29, peptide before induction with HGF): able to prevent activation

Reference: US9586994B2, “CD44V6-derived peptides for treating breast cancer” (KARLSRUHER INSTITUT FÜR TECHNOLOGIE, priority 2012, dated 2017)
